# Test results from US10112911B2, “Substituted cyanoguanidines as oral anti-virals” (Abbvie Inc, priority 2012, dated 2018).
# Test system: RSV (Group A, Long Strain)
# Test: Cytopathetic effect (CPE) protection antiviral assay, MTT readout
# Assay type: cell-based
# Conditions: human respiratory syncytial virus, HEp-2, 96 h, HEp-2 cells, 0.2 MOI RSV, 4 days incubation, protection from CPE (Table 1); read-out: RSV EC50
# Protocol: HEp-2 cells and RSV (Group A, Long Strain) were obtained from the American Type Culture Collection (Manassas, Va.).
# A cytopathetic effect (CPE) protection assay was performed to determine the ability of a compound to protect the cells from viral infection and thus the CPE induced by viral infection. 96-Well plates were first seeded with […] per well in Dulbecco's modified Eagle's medium (DMEM) containing 10% fetal bovine serum (FBS). One day after the cells were seeded, they were preincubated with serial dilutions of compounds prepared in 100 μL assay medium (DMEM mixed with F12 medium at a 1:1 ratio, supplemented with 2% FBS and 1 mM sodium pyruvate) for 1 hour at 37° C. 100 μL of assay medium containing 0.2 multiplicity of infection (MOI) of RSV was then added to each well of cells. In addition to wells containing infected cells incubated with compounds, each plate also contained replicates of two kinds of controls: (1) Virus control contained cells infected with 0.2 MOI of RSV in assay medium, (2) Uninfected cell control contained cells incubated with assay medium only. After 4 days of incubation at 37° C., the viability of cells was assessed using MTT (Thiazolyl blue tetrazolium bromide, Sigma). A stock solution of MTT, at a concentration of 4 mg/mL in phosphate-buffered saline, was added to all wells at 25 μL per well. Plates were further incubated for 4 hours, and each well was then treated with 50 μL of a solution containing 20% sodium dodecyl sulfate (SDS) and 0.02 N HCl. After an overnight incubation, the plates were measured on a BioTek® microtiter plate reader at wavelengths of 570 nm and 650 nm. The MTT detection is based on the fact that viable (uninfected) cells can reduce the tetrazolium salts into colored formazan products, which can then be quantitated by spectrometry. Based on the spectrometric absorbance of each sample, the percent of protection from CPE, which is an indicator of protection from viral infection, can be calculated for each compound and the 50% effective concentrations (EC50) can be calculated using a nonlinear regression curve fitting equation provided by the GraphPad Prism® 4 software.
# Compounds were tested to determine both their antiviral and toxicity to determine their therapeutic window. Determination of the EC50 and TD50 of these active compounds were repeated one additional time to confirm the window.
row,Compound,EC50 [µM]
1,"Cc1c(F)cccc1N/C(=N/C#N)N1CCN(c2cnc3ccccc3n2)CC1C(C)C (centres unmarked) [Example 1.29, N′-cyano-N-(3-fluoro-2-methylphenyl)-2-isopropyl-4-(quinoxalin-2-yl)piperazine-1-carboximidamide]",> 3.16
2,"Cc1ccc(F)cc1N/C(=N/C#N)N1CCN(c2cnc3ccccc3n2)CC1C(C)C (centres unmarked) [Example 1.31, N′-cyano-N-(5-fluoro-2-methylphenyl)-2-isopropyl-4-(quinoxalin-2-yl)piperazine-1-carboximidamide]",2
3,"Cc1cccc(F)c1N/C(=N/C#N)N1CCN(c2cnc3ccccc3n2)CC1C(C)C (centres unmarked) [Example 1.33, N′-cyano-N-(2-fluoro-6-methylphenyl)-2-isopropyl-4-(quinoxalin-2-yl)piperazine-1-carboximidamide]",0.3
4,"CC(C)C1CN(c2cnc3ccccc3n2)CCN1/C(=N\C#N)Nc1cc(C(C)(C)C)nn1C (centres unmarked) [Example 1.36, N-(3-tert-butyl-1-methyl-1H-pyrazol-5-yl)-N′-cyano-2-isopropyl-4-(quinoxalin-2-yl)piperazine-1-carboximidamide]",> 6.6
5,"Cc1ccccc1N/C(=N/C#N)N1CCN(c2cnc3ccccc3n2)CC1CC(C)C (centres unmarked) [Example 1.37, N′-cyano-2-isobutyl-N-(2-methylphenyl)-4-(quinoxalin-2-yl)piperazine-1-carboximidamide]",0.4
6,"CC(C)CC1CN(c2cnc3ccccc3n2)CCN1/C(=N\C#N)Nc1ccccc1Cl (centres unmarked) [Example 1.41, N-(2-chlorophenyl)-N′-cyano-2-isobutyl-4-(quinoxalin-2-yl)piperazine-1-carboximidamide]",1.22
7,"Cc1ccccc1N/C(=N/C#N)N1CCN(c2cnc3ccccc3n2)CC1C (centres unmarked) [Example 1.42, N′-cyano-2-methyl-N-(2-methylphenyl)-4-(quinoxalin-2-yl)piperazine-1-carboximidamide]",> 10
8,"Cc1ccccc1N/C(=N/C#N)N1CCN(c2cnc3ccccc3n2)CC1C(C)(C)C (centres unmarked) [Example 1.46, 2-tert-butyl-N′-cyano-N-(2-methylphenyl)-4-(quinoxalin-2-yl)piperazine-1-carboximidamide]",> 10
9,"Cc1ccccc1N/C(=N/C#N)N1CCN(c2cnc3ccccc3n2)CC1C1CCCCC1 (centres unmarked) [Example 1.48, N′-cyano-2-cyclohexyl-N-(2-methylphenyl)-4-(quinoxalin-2-yl)piperazine-1-carboximidamide]",1.34
10,"Cc1ccccc1N/C(=N/C#N)N1CCN(c2cnc3cc(F)c(F)cc3n2)CC1C(C)C (centres unmarked) [Example 1.51, N′-cyano-4-(6,7-difluoroquinoxalin-2-yl)-2-isopropyl-N-(2-methylphenyl)piperazine-1-carboximidamide]",0.69
11,"Cc1ccccc1N/C(=N/C#N)N1CCN(c2nc3ccccc3nc2C)CC1C(C)C (centres unmarked) [Example 1.52, N′-cyano-2-isopropyl-N-(2-methylphenyl)-4-(3-methylquinoxalin-2-yl)piperazine-1-carboximidamide]",> 10
12,"Cc1ccc2ncc(N3CCN(/C(=N\C#N)Nc4ccccc4C)C(C(C)C)C3)nc2c1 (centres unmarked) [Example 1.56, N′-cyano-2-isopropyl-N-(2-methylphenyl)-4-(7-methylquinoxalin-2-yl)piperazine-1-carboximidamide]",1.6
13,"Cc1ccccc1N/C(=N/C#N)N1CCN(c2cnc3cc(C(F)(F)F)ccc3n2)CC1C(C)C (centres unmarked) [Example 1.57, N′-cyano-2-isopropyl-N-(2-methylphenyl)-4-[6-(trifluoromethyl)quinoxalin-2-yl]piperazine-1-carboximidamide]",0.29
14,"Cc1ccccc1N/C(=N/C#N)N1CCN(c2cnc3ccc(F)cc3n2)CC1C(C)C (centres unmarked) [Example 1.60, N′-cyano-4-(7-fluoroquinoxalin-2-yl)-2-isopropyl-N-(2-methylphenyl)piperazine-1-carboximidamide]",1.05
15,"Cc1ccccc1N/C(=N/C#N)N1CCN(c2ncc3ccccc3n2)CC1C(C)C (centres unmarked) [Example 1.62, N′-cyano-2-isopropyl-N-(2-methylphenyl)-4-(quinazolin-2-yl)piperazine-1-carboximidamide]",> 32

# Continued, values first:
row,EC50 [µM],Compound
1,> 10,"CC(C)C1CN(c2cnc3ccccc3n2)CCN1/C(=N\C#N)Nc1ccc(F)cc1Cl (centres unmarked) [Example 1.30, N-(2-chloro-4-fluorophenyl)-N′-cyano-2-isopropyl-4-(quinoxalin-2-yl)piperazine-1-carboximidamide]"
2,> 10,"Cc1cc(F)ccc1N/C(=N/C#N)N1CCN(c2cnc3ccccc3n2)CC1C(C)C (centres unmarked) [Example 1.32, N′-cyano-N-(4-fluoro-2-methylphenyl)-2-isopropyl-4-(quinoxalin-2-yl)piperazine-1-carboximidamide]"
3,> 3.1,"Cc1cc(F)c(F)cc1N/C(=N/C#N)N1CCN(c2cnc3ccccc3n2)CC1C(C)C (centres unmarked) [Example 1.34, N′-cyano-N-(4,5-difluoro-2-methylphenyl)-2-isopropyl-4-(quinoxalin-2-yl)piperazine-1-carboximidamide]"
4,> 10,"Cc1ccccc1CN/C(=N/C#N)N1CCN(c2cnc3ccccc3n2)CC1C(C)C (centres unmarked) [Example 1.35, N′-cyano-2-isopropyl-N-(2-methylbenzyl)-4-(quinoxalin-2-yl)piperazine-1-carboximidamide]"
5,> 3.1,"Cc1cccc(N/C(=N/C#N)N2CCN(c3cnc4ccccc4n3)CC2CC(C)C)c1 (centres unmarked) [Example 1.38, N′-cyano-2-isobutyl-N-(3-methylphenyl)-4-(quinoxalin-2-yl)piperazine-1-carboximidamide]"
6,> 10,"CC(C)CC1CN(c2cnc3ccccc3n2)CCN1/C(=N\C#N)Nc1ccccc1F (centres unmarked) [Example 1.39, N′-cyano-N-(2-fluorophenyl)-2-isobutyl-4-(quinoxalin-2-yl)piperazine-1-carboximidamide]"
7,> 10,"CC(C)CC1CN(c2cnc3ccccc3n2)CCN1/C(=N\C#N)Nc1cccc(F)c1 (centres unmarked) [Example 1.40, N′-cyano-N-(3-fluorophenyl)-2-isobutyl-4-(quinoxalin-2-yl)piperazine-1-carboximidamide]"
8,> 10,"Cc1ccccc1N/C(=N/C#N)N1CCN(c2cnc3ccccc3n2)CC12CCC2 [Example 1.43, N′-cyano-N-(2-methylphenyl)-8-(quinoxalin-2-yl)-5,8-diazaspiro[3.5]nonane-5-carboximidamide]"
9,> 10,"Cc1ccccc1N/C(=N/C#N)N1CCN(c2cnc3ccccc3n2)CC12CC2 [Example 1.45, N′-cyano-N-(2-methylphenyl)-7-(quinoxalin-2-yl)-4,7-diazaspiro[2.5]octane-4-carboximidamide]"
10,> 1.38,"CCC(C)C1CN(c2cnc3ccccc3n2)CCN1/C(=N\C#N)Nc1ccccc1C (centres unmarked) [Example 1.47, 2-sec-butyl-N′-cyano-N-(2-methylphenyl)-4-(quinoxalin-2-yl)piperazine-1-carboximidamide]"
11,> 3.2,"Cc1ccccc1N/C(=N/C#N)N1CCN(c2cnc3ccccc3n2)CC1CC1CCCCC1 (centres unmarked) [Example 1.49, N′-cyano-2-(cyclohexylmethyl)-N-(2-methylphenyl)-4-(quinoxalin-2-yl)piperazine-1-carboximidamide]"
12,> 3.2,"Cc1cc2ncc(N3CCN(/C(=N\C#N)Nc4ccccc4C)C(C(C)C)C3)nc2cc1C (centres unmarked) [Example 1.50, N′-cyano-4-(6,7-dimethylquinoxalin-2-yl)-2-isopropyl-N-(2-methylphenyl)piperazine-1-carboximidamide]"
13,> 10,"Cc1ccccc1N/C(=N/C#N)N1CCN(c2nc3ccccc3nc2C(F)(F)F)CC1C(C)C (centres unmarked) [Example 1.53, N′-cyano-2-isopropyl-N-(2-methylphenyl)-4-[3-(trifluoromethyl)quinoxalin-2-yl]piperazine-1-carboximidamide]"
14,> 3.2,"Cc1ccccc1N/C(=N/C#N)N1CCN(c2cnc3cc(Cl)c(Cl)cc3n2)CC1C(C)C (centres unmarked) [Example 1.58, N′-cyano-4-(6,7-dichloroquinoxalin-2-yl)-2-isopropyl-N-(2-methylphenyl)piperazine-1-carboximidamide]"
15,> 3.2,"Cc1ccccc1N/C(=N/C#N)N1CCN(c2cnc3cccc(C(F)(F)F)c3n2)CC1C(C)C (centres unmarked) [Example 1.59, N′-cyano-2-isopropyl-N-(2-methylphenyl)-4-[8-(trifluoromethyl)quinoxalin-2-yl]piperazine-1-carboximidamide]"
16,> 6.6,"Cc1ccccc1N/C(=N/C#N)N1CCN(c2ccc3ccccc3n2)CC1C(C)C (centres unmarked) [Example 1.61, N′-cyano-2-isopropyl-N-(2-methylphenyl)-4-(quinolin-2-yl)piperazine-1-carboximidamide]"
17,> 10,"Cc1ccccc1NC(=NC#N)N1CCN(c2cncc(N3CCOCC3)n2)CC1C(C)C (centres unmarked) [Example 1.63, N′-cyano-2-isopropyl-N-(2-methylphenyl)-4-[6-(morpholin-4-yl)pyrazin-2-yl]piperazine-1-carboximidamide]"
